Data reported in patent US9451774B2, “Paddy rice seed treated by herbicidal composition and method for controlling weed” (MITSUI CHEMICALS AGRO, INC., priority 2013, dated 2016).

What was measured:
Scirpus juncoides Roxb. [1] = experiment: Test Example 6: pot test, herbicide-treated seed, growth inhibition; format: in vivo; conditions: 20 days after sowing, dosage a.i. g per 1 kg of seeds: Pyrimisulfan 0.5, Pyriminobac-methyl 1.5, Butachlor 1.25
Description: (§3) In 100 cm^2 of a pot was filled a paddy field soil, and after paddling, seeds of Echinochloa oryzicola and Scirpus juncoides Roxb. were sown and mixed into the surface layer of the soil. Paddy rice seeds (variety: Nipponbare) sprouted into a pigeon breast shape were dust-coated with a predetermined amount of wettable powder each prepared according to Preparation examples 5, 6 and 9, and were sown onto the surface of the soil or into the soil (depth: 1 cm) at an amount of 10 grains/pot. After the sowing, water was introduced quietly and flooded up to 1 cm. After 20 days from the sowing, a growth inhibition rate was judged according to the above-mentioned judgement criteria.

Echinochloa oryzicola [2] = experiment: as above; format: in vivo; conditions: 20 days after sowing, dosage a.i. g per 1 kg of seeds: Pyrimisulfan 0.5, Pyriminobac-methyl 1.5, Butachlor 1.25
Description: as §3

Echinochloa oryzicola [3] = experiment: Test Example 7: pot test, seed dust-coated with COMMAND3ME, growth inhibition; format: in vivo; conditions: Surface sowing; 21 days after sowing; dosage 2.5 a.i. g per 1 kg of seeds (as COMMAND3ME)
Description: In 100 cm^2 of a pot was filled a paddy field soil, and after paddling, seeds of Echinochloa oryzicola was sown and mixed into the surface layer of the soil. Paddy rice seeds (variety: Nipponbare) sprouted into a pigeon breast shape were dust-coated with a predetermined amount of COMMAND3ME™ (clomazone: 31.4%, available from FMC Corporation), and were sown onto the surface of the soil at an amount of 10 grains/pot. After the sowing, water was introduced quietly and flooded up to 1 cm. After 21 days from the sowing, a growth inhibition rate was judged according to the above-mentioned judgement criteria.

[4] = tested on: Paddy rice (variety: Nipponbare); experiment: Test Example 1: pot test, growth inhibition (chemical damage) of the paddy rice; format: in vivo; conditions: 30 days after sowing, dosage a.i. g per 1 kg of seeds: Pyrazolate 150, Compound (I) 37.5, Thenylchlor 0.63
Description: (§1) In 100 cm^2 of a pot was filled a paddy field soil, and after paddling, seeds of Monochoria vaginalis and Lindernia procumbens were sown and mixed into the surface layer of the soil. Paddy rice seeds (variety: Nipponbare) sprouted into a pigeon breast shape were dust-coated with a predetermined amount of wettable powder each prepared according to Preparation examples 1, 2 and 7, and were sown onto the surface of the soil or into the soil (depth: 1 cm) at an amount of 10 grains/pot. After the sowing, water was introduced quietly and flooded up to 1 cm. After 30 days from the sowing, a growth inhibition rate was judged according to the following judgement criteria.

Monochoria vaginalis [5] = experiment: Test Example 1: pot test, herbicide-treated paddy rice seed, growth inhibition; format: in vivo; conditions: 30 days after sowing, dosage a.i. g per 1 kg of seeds: Pyrazolate 150, Compound (I) 37.5, Thenylchlor 0.63
Description: as §1

Lindernia procumbens [6] = experiment: as above; format: in vivo; conditions: 30 days after sowing, dosage a.i. g per 1 kg of seeds: Pyrazolate 150, Compound (I) 37.5, Thenylchlor 0.63
Description: as §1

[7] = tested on: Paddy rice (variety: Koshihikari); experiment: Test Example 2: pot test, iron powder-coated seed, growth inhibition of the paddy rice; format: in vivo; conditions: surface sowing, 21 days after sowing, dosage a.i. g per 1 kg of seeds: Pyrazolate 150, Compound (I) 38, Sulcotrione 1.0, Imazosulfuron 1.0
Procedure: (§2) Also, paddy rice seeds (variety: Koshihikari) dipped in 20° C. of water for 2 days were dust-coated with a mixture of iron powder and calcined gypsum (a mixing ratio of 10:1) with an amount of 100 g per 1 kg of the seeds (dried unhulled rice) to prepare iron powder-coated seeds.

Monochoria vaginalis [8] = experiment: Test Example 2: pot test, iron powder-coated herbicide-treated seed, growth inhibition; format: in vivo; conditions: surface sowing, 21 days after sowing, dosage a.i. g per 1 kg of seeds: Pyrazolate 150, Compound (I) 38, Sulcotrione 1.0, Imazosulfuron 1.0
Procedure: as §2

Lindernia procumbens [9] = experiment: as above; format: in vivo; conditions: surface sowing, 21 days after sowing, dosage a.i. g per 1 kg of seeds: Pyrazolate 150, Compound (I) 38, Sulcotrione 1.0, Imazosulfuron 1.0
Procedure: as §2

Lindernia procumbens [10] = experiment: Test Example 5: pot test, herbicide-treated seed, growth inhibition; format: in vivo; conditions: 20 days after sowing, dosage a.i. g per 1 kg of seeds: Sulcotrione 1.0, Imazosulfuron 1.0, Oxadiargyl 0.15
Description: (§4) In 100 cm^2 of a pot was filled a paddy field soil, and after paddling, seeds of Lindernia procumbens and Scirpus juncoides Roxb. were sown and mixed into the surface layer of the soil. Paddy rice seeds (variety: Nipponbare) sprouted into a pigeon breast shape were dust-coated with a predetermined amount of wettable powder each prepared according to Preparation examples 3, 4 and 8, and were sown onto the surface of the soil or into the soil (depth: 1 cm) at an amount of 10 grains/pot. After the sowing, water was introduced quietly and flooded up to 1 cm. After 20 days from the sowing, a growth inhibition rate was judged according to the following judgement criteria.

Scirpus juncoides Roxb. [11] = experiment: as above; format: in vivo; conditions: 20 days after sowing, dosage a.i. g per 1 kg of seeds: Sulcotrione 1.0, Imazosulfuron 1.0, Oxadiargyl 0.15
Description: as §4

[12] = tested on: Paddy rice (variety: Nipponbare); experiment: Test Example 6: pot test, growth inhibition of the paddy rice; format: in vivo; conditions: 20 days after sowing, dosage a.i. g per 1 kg of seeds: Pyrimisulfan 0.5, Pyriminobac-methyl 1.5, Butachlor 1.25
Description: as §3

Echinochloa oryzicola [13] = experiment: Test Example 3: pot test, iron powder-coated herbicide-treated seed, growth inhibition; format: in vivo; conditions: surface sowing, 22 days after sowing, dosage a.i. g per 1 kg of seeds: Pyrimisulfan 0.5, Pyriminobac-methyl 1.5
Procedure: as §2

Scirpus juncoides Roxb. [14] = experiment: as above; format: in vivo; conditions: surface sowing, 22 days after sowing, dosage a.i. g per 1 kg of seeds: Pyrimisulfan 0.5, Pyriminobac-methyl 1.5
Procedure: as §2

[15] = tested on: Paddy rice (variety: Koshihikari); experiment: Test Example 3: pot test, iron powder-coated seed, growth inhibition of the paddy rice; format: in vivo; conditions: surface sowing, 22 days after sowing, dosage a.i. g per 1 kg of seeds: Pyrimisulfan 0.5, Pyriminobac-methyl 1.5
Procedure: as §2

Monochoria vaginalis [16] = experiment: Test Example 10: pot test, seed treated with herbicide with or without dymron, growth inhibition; format: in vivo; conditions: Surface sowing; 20 days after sowing; dosage a.i. g per 1 kg of seeds: Pyrimisulfan + Dymron 1 + 40, Pyrimisulfan 1
Description: as §1, with “5” for “1, 2”, “11,” for “7,”, “soil” for “soil or into the soil (depth: 1 cm)”, “20” for “30”, “above-mentioned” for “following”

Lindernia procumbens [17] = experiment: as above; format: in vivo; conditions: Surface sowing; 20 days after sowing; dosage a.i. g per 1 kg of seeds: Pyrimisulfan + Dymron 1 + 40, Pyrimisulfan 1
Description: as §1, with “5” for “1, 2”, “11,” for “7,”, “soil” for “soil or into the soil (depth: 1 cm)”, “20” for “30”, “above-mentioned” for “following”

[18] = tested on: Paddy rice (variety: Nipponbare); experiment: Test Example 5: pot test, growth inhibition of the paddy rice; format: in vivo; conditions: 20 days after sowing, dosage a.i. g per 1 kg of seeds: Sulcotrione 1.0, Imazosulfuron 1.0, Oxadiargyl 0.15
Description: as §4

[19] = tested on: paddy rice varieties Habataki, Takanari, Momiroman, Mizuhochikara, Ruriaoba and Odorokimochi; conditions: Japanese Journal of Crop Science 79 (Extra 1); cited from earlier work
[20] = Surface sowing of treated rice seed

CCCCOCN(C(=O)CCl)c1c(CC)cccc1CC [Butachlor, butachlor]
Growth inhibition rate, Scirpus juncoides Roxb. (Scirpus juncoides Roxb. [1]; Sowing into soil (depth 1 cm)): 0 (Growth inhibition rate of 0 to 9%)
Growth inhibition rate, Scirpus juncoides Roxb. (Scirpus juncoides Roxb. [1]; Surface sowing): 0 (Growth inhibition rate of 0 to 9%)
Growth inhibition rate, Echinochloa oryzicola (Echinochloa oryzicola [2]; Sowing into soil (depth 1 cm)): 5 (Growth inhibition rate of 46 to 54%)
Growth inhibition rate, Echinochloa oryzicola (Echinochloa oryzicola [2]; Surface sowing): 7 (Growth inhibition rate of 64 to 72%)

CC1(C)CON(Cc2ccccc2Cl)C1=O [Clomazone, clomazone]
Growth inhibition rate, Echinochloa oryzicola (Echinochloa oryzicola [3]): 9 (Growth inhibition rate of 82 to 90%)

Cc1cccc(C2CC2)c1Oc1nnc(Cl)cc1OC(=O)N1CCOCC1 [Compound (I), 6-chloro-3-(2-cyclopropyl-6-methylphenoxy)pyridazin-4-yl morpholin-4-carboxylate]
Growth inhibition rate, Paddy rice ([4]; Sowing into soil (depth 1 cm)): 5 (Growth inhibition rate of 46 to 54%)
Growth inhibition rate, Paddy rice ([4]; Surface sowing): 0 (Growth inhibition rate of 0 to 9%)
Growth inhibition rate, Monochoria vaginalis (Monochoria vaginalis [5]; Sowing into soil (depth 1 cm)): 9 (Growth inhibition rate of 82 to 90%)
Growth inhibition rate, Monochoria vaginalis (Monochoria vaginalis [5]; [20]): 10 (Growth inhibition rate of 91 to 100%)
Growth inhibition rate, Lindernia procumbens (Lindernia procumbens [6]; Sowing into soil (depth 1 cm)): 8 (Growth inhibition rate of 73 to 81%)
Growth inhibition rate, Lindernia procumbens (Lindernia procumbens [6]; [20]): 10 (Growth inhibition rate of 91 to 100%)
Growth inhibition rate, Paddy rice [7]: 0 (Growth inhibition rate of 0 to 9%)
Growth inhibition rate, Monochoria vaginalis (Monochoria vaginalis [8]): 10 (Growth inhibition rate of 91 to 100%)
Growth inhibition rate, Lindernia procumbens (Lindernia procumbens [9]): 10 (Growth inhibition rate of 91 to 100%)

COc1cc(OC)nc(NC(=O)NS(=O)(=O)c2c(Cl)nc3ccccn23)n1 [Imazosulfuron, imazosulfuron]
Growth inhibition rate, Lindernia procumbens (Lindernia procumbens [10]; Sowing into soil (depth 1 cm)): 10 (Growth inhibition rate of 91 to 100%)
Growth inhibition rate, Lindernia procumbens (Lindernia procumbens [10]; Surface sowing): 10 (Growth inhibition rate of 91 to 100%)
Growth inhibition rate, Monochoria vaginalis (Monochoria vaginalis [8]): 10 (Growth inhibition rate of 91 to 100%)
Growth inhibition rate, Lindernia procumbens (Lindernia procumbens [9]): 10 (Growth inhibition rate of 91 to 100%)
Growth inhibition rate, Scirpus juncoides Roxb. (Scirpus juncoides Roxb. [11]; Sowing into soil (depth 1 cm)): 9 (Growth inhibition rate of 82 to 90%)
Growth inhibition rate, Scirpus juncoides Roxb. (Scirpus juncoides Roxb. [11]; Surface sowing): 10 (Growth inhibition rate of 91 to 100%)

CO/N=C(/C)c1cccc(Oc2nc(OC)cc(OC)n2)c1C(=O)OC [Pyriminobac-methyl, pyriminobac-methyl]
Growth inhibition rate, Scirpus juncoides Roxb. (Scirpus juncoides Roxb. [1]; Sowing into soil (depth 1 cm)): 0 (Growth inhibition rate of 0 to 9%)
Growth inhibition rate, Scirpus juncoides Roxb. (Scirpus juncoides Roxb. [1]; Surface sowing): 0 (Growth inhibition rate of 0 to 9%)
Growth inhibition rate, Echinochloa oryzicola (Echinochloa oryzicola [2]; Sowing into soil (depth 1 cm)): 10 (Growth inhibition rate of 91 to 100%)
Growth inhibition rate, Echinochloa oryzicola (Echinochloa oryzicola [2]; Surface sowing): 10 (Growth inhibition rate of 91 to 100%)
Growth inhibition rate, Paddy rice ([12]; Sowing into soil (depth 1 cm)): 3 (Growth inhibition rate of 28 to 36%)
Growth inhibition rate, Paddy rice ([12]; Surface sowing): 0 (Growth inhibition rate of 0 to 9%)
Growth inhibition rate, Echinochloa oryzicola (Echinochloa oryzicola [13]): 10 (Growth inhibition rate of 91 to 100%)
Growth inhibition rate, Scirpus juncoides Roxb. (Scirpus juncoides Roxb. [14]): 0 (Growth inhibition rate of 0 to 9%)
Growth inhibition rate, Paddy rice [15]: 0 (Growth inhibition rate of 0 to 9%)

COCc1cccc(C(O)c2nc(OC)cc(OC)n2)c1NS(=O)(=O)C(F)F (stereo not shown) [Pyrimisulfan, pyrimisulfan]
Growth inhibition rate, Scirpus juncoides Roxb. (Scirpus juncoides Roxb. [1]; Sowing into soil (depth 1 cm)): 10 (Growth inhibition rate of 91 to 100%)
Growth inhibition rate, Scirpus juncoides Roxb. (Scirpus juncoides Roxb. [1]; Surface sowing): 10 (Growth inhibition rate of 91 to 100%)
Growth inhibition rate, Echinochloa oryzicola (Echinochloa oryzicola [2]; Sowing into soil (depth 1 cm)): 8 (Growth inhibition rate of 73 to 81%)
Growth inhibition rate, Echinochloa oryzicola (Echinochloa oryzicola [2]; Surface sowing): 10 (Growth inhibition rate of 91 to 100%)
Growth inhibition rate, Echinochloa oryzicola (Echinochloa oryzicola [13]): 10 (Growth inhibition rate of 91 to 100%)
Growth inhibition rate, Scirpus juncoides Roxb. (Scirpus juncoides Roxb. [14]): 10 (Growth inhibition rate of 91 to 100%)
Growth inhibition rate, Monochoria vaginalis (Monochoria vaginalis [16]): 10 (Growth inhibition rate of 91 to 100%)
Growth inhibition rate, Lindernia procumbens (Lindernia procumbens [17]): 10 (Growth inhibition rate of 91 to 100%)

CS(=O)(=O)c1ccc(C(=O)C2C(=O)CCCC2=O)c(Cl)c1 [Sulcotrione, sulcotrione]
Growth inhibition rate, Paddy rice ([18]; Sowing into soil (depth 1 cm)): 3 (Growth inhibition rate of 28 to 36%)
Growth inhibition rate, Paddy rice ([18]; Surface sowing): 0 (Growth inhibition rate of 0 to 9%)
Growth inhibition rate, Lindernia procumbens (Lindernia procumbens [10]; Sowing into soil (depth 1 cm)): 10 (Growth inhibition rate of 91 to 100%)
Growth inhibition rate, Lindernia procumbens (Lindernia procumbens [10]; Surface sowing): 10 (Growth inhibition rate of 91 to 100%)
Growth inhibition rate, Paddy rice [7]: 0 (Growth inhibition rate of 0 to 9%)
Growth inhibition rate, Monochoria vaginalis (Monochoria vaginalis [8]): 10 (Growth inhibition rate of 91 to 100%)
Growth inhibition rate, Lindernia procumbens (Lindernia procumbens [9]): 10 (Growth inhibition rate of 91 to 100%)
Growth inhibition rate, Scirpus juncoides Roxb. (Scirpus juncoides Roxb. [11]; Sowing into soil (depth 1 cm)): 8 (Growth inhibition rate of 73 to 81%)
Growth inhibition rate, Scirpus juncoides Roxb. (Scirpus juncoides Roxb. [11]; Surface sowing): 9 (Growth inhibition rate of 82 to 90%)

COc1ccsc1CN(C(=O)CCl)c1c(C)cccc1C [Thenylchlor, thenylchlor]
Growth inhibition rate, Paddy rice ([4]; Sowing into soil (depth 1 cm)): 9 (Growth inhibition rate of 82 to 90%)
Growth inhibition rate, Paddy rice ([4]; Surface sowing): 6 (Growth inhibition rate of 55 to 63%)
Growth inhibition rate, Monochoria vaginalis (Monochoria vaginalis [5]; Sowing into soil (depth 1 cm)): 6 (Growth inhibition rate of 55 to 63%)
Growth inhibition rate, Monochoria vaginalis (Monochoria vaginalis [5]; [20]): 7 (Growth inhibition rate of 64 to 72%)
Growth inhibition rate, Lindernia procumbens (Lindernia procumbens [6]; Sowing into soil (depth 1 cm)): 8 (Growth inhibition rate of 73 to 81%)
Growth inhibition rate, Lindernia procumbens (Lindernia procumbens [6]; [20]): 9 (Growth inhibition rate of 82 to 90%)

CS(=O)(=O)c1ccc(C(=O)C2=C(Sc3ccccc3)C3CCC(C3)C2=O)c(Cl)c1 (stereo not shown) [benzobicyclon]
Sensitivity of paddy rice variety to the herbicide [19]: show sensitivity

CS(=O)(=O)c1ccc(C(=O)C2C(=O)CCCC2=O)c([N+](=O)[O-])c1 [mesotrione]
Sensitivity of paddy rice variety to the herbicide [19]: show sensitivity

oxadiargyl
Growth inhibition rate, Lindernia procumbens (Lindernia procumbens [10]; Sowing into soil (depth 1 cm)): 10 (Growth inhibition rate of 91 to 100%)
Growth inhibition rate, Lindernia procumbens (Lindernia procumbens [10]; Surface sowing): 10 (Growth inhibition rate of 91 to 100%)
Growth inhibition rate, Scirpus juncoides Roxb. (Scirpus juncoides Roxb. [11]; Sowing into soil (depth 1 cm)): 1 (Growth inhibition rate of 10 to 18%)
Growth inhibition rate, Scirpus juncoides Roxb. (Scirpus juncoides Roxb. [11]; Surface sowing): 2 (Growth inhibition rate of 19 to 27%)
